Experimental data reported in patent US20210260010A1, “COMPOSITIONS AND METHODS FOR THE REDUCTION OR TREATMENT OF INFLAMMATION” (AXCELLA HEALTH INC., priority 2018, published 2021).

Experiments:
[1] = test system: CCL18; test: IL-4 induced CCL18 secretion in primary human monocyte-derived macrophages (ELISA); type: cell-based; details: for Donor 1 CCL18 Measurements Mean / Donor 2 CCL18 Measurements Mean: relative to vehicle control; for CCL18 Measurements: Mean (fold change relative to vehicle control): IL-4 induced; for IL-4 induced CCL18 secretion (fold change relative to vehicle control): macrophages
Protocol: Lymphocytes were purified from unpurified buffy coats (Research Blood Components) using Lymphocyte Separation Medium (Corning). After centrifugation, the PBMC layer was extracted and rinsed several times using Dulbecco's phosphate-buffered saline (DPBS; Gibco). After straining PBMCs through a 70 uM cell strainer, cells were resuspended and counted using a Cellometer K2 automated cell counter.
CD14+ cells were selected using EasySep™ Human CD14 Positive Selection Kit II ([…] Technologies) according to manufacturer-supplied protocols. Following isolation CD14+ cells were seeded into 10 cm tissue culture plates and differentiated into macrophages using M-CSF (Peprotech).
On day 0, primary human PBMC derived macrophages were seeded in Dulbecco's Modified Eagle Medium (DMEM) (Gibco) supplemented with penicillin-streptomycin (Hyclone) and 10% heat inactivated fetal bovine serum (HI-FBS) (Atlanta Bio) into 96-well microplates (ThermoFisher) and incubated overnight at 37° C., 5% CO2. On day 1, cells were washed once with DPBS and then treated with: • a. Amino acid free DMEM (US Biologicals) containing a defined custom amino acid concentration based on the mean physiological concentrations in blood based on values published in the Human Metabolome Database (HMDB), with 6 mM glucose, 1 mM sodium pyruvate, 10 mM HEPES, penicillin-streptomycin; or • b. The same medium described above with one amino acid or amino acid combination at various concentrations
On day 2, cells were treated with the same mediums described above supplemented with recombinant human interleukin-4 (IL-4; Peprotech). Control wells were treated with tofacitinib (Tocris) and IL-4, PBS with IL-4, or phosphate buffered saline (PBS) alone.
On day 3, the supernatant was collected and immediately frozen in −80° C. freezer. Cells were washed once with DPBS and viability was assessed using the WST-8 Cell Proliferation Cytotoxicity Assay (Dojindo) according to manufacturer-supplied protocol. Following the assay, cells were washed twice with PBS and fixed with 4% paraformaldehyde. Protein levels in supernatant samples were analyzed by ELISA for CCL18 using commercially available kits (R&D Systems) according to manufacturer-supplied protocols.

[2] = test system: IL-6; test: LPS-induced IL-6 secretion in primary human monocyte-derived macrophages (ELISA); type: cell-based; details: for IL-6 Measurements Mean: LPS 0.15 ng/mL, baseline subtracted
Protocol: Unpurified buffy coats (Research Blood Components) were carefully poured into 50 mL centrifuge tubes and diluted with room temperature Dulbecco's Phosphate Buffered Saline (dPBS) with Calcium and Magnesium (Gibco). Diluted buffy coats were further divided into four total 50 mL centrifuge tubes at 20 mL per tube. Lymphocyte Separation Medium (Corning) was carefully pipetted to the bottom of each centrifuge tube. Mixtures were centrifuged at 850× g for 32 minutes at 20° C. with 0 deceleration and acceleration.
The PBMC layer was separated from other components after centrifugation and added to new 50 mL centrifuge tube containing 25 mL dPBS. Total volume was brought up to 50 mL with dPBS and centrifuged at 600×g for 10 minutes at 20° C. with acceleration of 9, deceleration of 5. Supernatant was carefully removed from cell pellets. The cell pellets were resuspended using 10 mL dPBS. Total volume was then brought up to 50 mL using dPBS and centrifuged at 450×g for 5 min at 20° C. with acceleration of 9, deceleration of 9. The supernatant removal and cell pellet resuspension was repeated again.
The supernatant was then carefully removed from cell pellets. Cell pellets were resuspended in 10 mL dPBS without calcium or magnesium and filtered through a 70 uM cell strainer. The total PBMC number was determined using a Cellometer K2 automated cell counter. A total of 5E6 cells were saved for flow cytometric analysis. Remaining cells were centrifuged at 490×g for 5 minutes at 20° C. with acceleration of 9, deceleration of 9.
CD14+ cells were selected using EasySep™ Human CD14 Positive Selection Kit II ([…] Technologies). Cells were resuspended in cold EasySep™ Buffer ([…] Technologies) at 1×10^8 cells/mL. A total of 100 uL/mL EasySep™ Human CD14 Positive Selection Cocktail II was added to the cell suspension, mixed, and incubated at room temperature for 10 minutes. A total of 100 uL/mL RapidSpheres were added to the mixture and incubated at room temperature for 3 minutes after mixing, then RoboSep buffer was added to bring up the total volume to 10 mL. The mixture in a 15 mL tube was placed in magnet and incubated at room temperature for 3 minutes. Supernatant was discarded and 10 mL fresh EasySep™ buffer was added to 15 mL tube. The addition of RoboSep buffer, mixing, and discarding of supernatant was repeated two more times.
Negative and positive fractions were centrifuged at 490×g for 5 minutes at 20° C. with acceleration of 9, deceleration of 9, and resuspended in DMEM (Gibco) and 10% Heat Inactivated Fetal Bovine Serum (Atlanta Bio) and Penicillin/Streptomycin. Cells were counted and centrifuged again at 490× g for 5 minutes at 20° C. with acceleration of 9, deceleration of 9. After centrifugation, cell were resuspended in DMEM (Gibco) and 10% Heat Inactivated Fetal Bovine Serum (Atlanta Bio) and Penicillin/Streptomycin containing 500 U/mL […] and plated at 1-2×10^6 cells/mL on 10 cm tissue culture plates. Cells were kept in 37° C., 5% CO2 in between feedings/harvest.
Cells were fed every 3-4 days by removing media and unattached cells, centrifuging at 490× g for 5 minutes at 20° C. with acceleration of 9, deceleration of 9, and resuspending in fresh DMEM (Gibco) and 10% Heat Inactivated Fetal Bovine Serum (Atlanta Bio) and Penicillin/Streptomycin containing GM-CSF. Resuspended cells were seeded back onto 10 cm tissue culture plates and incubated at 37° C., 5% CO2. Differentiated macrophages were used for subsequent experiments.
Primary human PMBC derived macrophages were seeded on day 0 at 3.0E4 cells per well in 96-well microplates (ThermoFisher) in Dulbecco's Modified Eagle Medium (DMEM) (Gibco) supplemented with penicillin-streptomycin (Hyclone) and 10% heat inactivated fetal bovine serum (HI-FBS) (Atlanta Bio) and incubated overnight at 37° C., 5% CO2. On day 1, cells were washed once with 150 uL per well DPBS (Gibco) and treated with 75 uL of: • a. […]

Structure (SMILES): CC[C@H](C)[C@H](N)C(=O)O [Isoleucine, L-Isoleucine]
- Donor 1 CCL18 Measurements Mean ([1]; Conc. 66 μM): 1.07 fold change
- Donor 1 CCL18 Measurements Mean ([1]; Conc. 1328 μM): 1.12 fold change
- Donor 1 CCL18 Measurements Mean ([1]; Conc. 3320 μM): 1.181 fold change
- Donor 1 CCL18 Measurements Mean ([1]; Conc. 6639 μM): 0.9823 fold change
- Donor 2 CCL18 Measurements Mean ([1]; Donor 2, Conc. 66 μM): 1.204 fold change
- Donor 2 CCL18 Measurements Mean ([1]; Donor 2, Conc. 1328 μM): 1.461 fold change
- Donor 2 CCL18 Measurements Mean ([1]; Donor 2, Conc. 3320 μM): 1.503 fold change
- Donor 2 CCL18 Measurements Mean ([1]; Donor 2, Conc. 6639 μM): 1.685 fold change
- CCL18 Measurements: Mean (fold change relative to vehicle control) ([1]; Donor 3, Conc. 66 μM): 1.056 fold change
- CCL18 Measurements: Mean (fold change relative to vehicle control) ([1]; Donor 3, Conc. 1328 μM): 1.026 fold change
- CCL18 Measurements: Mean (fold change relative to vehicle control) ([1]; Donor 3, Conc. 3320 μM): 1.431 fold change
- CCL18 Measurements: Mean (fold change relative to vehicle control) ([1]; Donor 3, Conc. 6639 μM): 1.111 fold change
- IL-4 induced CCL18 secretion (fold change relative to vehicle control) ([1]; Donor 2): significantly increased
- IL-6 Measurements Mean ([2]; Donor 1, Conc. 66 μM (baseline)): 0
- IL-6 Measurements Mean ([2]; Donor 1, Conc. 1328 μM): 25.98
- IL-6 Measurements Mean ([2]; Donor 1, Conc. 3320 μM): −15.8843
- IL-6 Measurements Mean ([2]; Donor 1, Conc. 6639 μM): −218.332
- IL-6 Measurements Mean ([2]; Donor 2, Conc. 66 μM (baseline)): 0
- IL-6 Measurements Mean ([2]; Donor 2, Conc. 1328 μM): −2.318
- IL-6 Measurements Mean ([2]; Donor 2, Conc. 3320 μM): 2.305
- IL-6 Measurements Mean ([2]; Donor 2, Conc. 6639 μM): −1.774
- IL-6 Measurements Mean ([2]; Donor 3, Conc. 66 μM): −6.69
- IL-6 Measurements Mean ([2]; Donor 3, Conc. 1328 μM): −28.9897
- IL-6 Measurements Mean ([2]; Donor 3, Conc. 3320 μM): 0
- IL-6 Measurements Mean ([2]; Donor 3, Conc. 6639 μM): −16.3663

Structure (SMILES): CC(C)C[C@H](N)C(=O)O [Leucine, L-Leucine]
- Donor 1 CCL18 Measurements Mean ([1]; Conc. 153 μM): 1.124 fold change
- Donor 1 CCL18 Measurements Mean ([1]; Conc. 3054 μM): 1.302 fold change
- Donor 1 CCL18 Measurements Mean ([1]; Conc. 7635 μM): 1.247 fold change
- Donor 1 CCL18 Measurements Mean ([1]; Conc. 15270 μM): 1.227 fold change
- Donor 2 CCL18 Measurements Mean ([1]; Donor 2, Conc. 153 μM): 1.488 fold change
- Donor 2 CCL18 Measurements Mean ([1]; Donor 2, Conc. 3054 μM): 1.646 fold change
- Donor 2 CCL18 Measurements Mean ([1]; Donor 2, Conc. 7635 μM): 1.825 fold change
- Donor 2 CCL18 Measurements Mean ([1]; Donor 2, Conc. 15270 μM): 1.712 fold change
- CCL18 Measurements: Mean (fold change relative to vehicle control) ([1]; Donor 3, Conc. 153 μM): 1.242 fold change
- CCL18 Measurements: Mean (fold change relative to vehicle control) ([1]; Donor 3, Conc. 3054 μM): 1.502 fold change
- CCL18 Measurements: Mean (fold change relative to vehicle control) ([1]; Donor 3, Conc. 7635 μM): 1.558 fold change
- CCL18 Measurements: Mean (fold change relative to vehicle control) ([1]; Donor 3, Conc. 15270 μM): 1.193 fold change
- IL-4 induced CCL18 secretion (fold change relative to vehicle control) ([1]; Donor 2): significantly increased
- IL-4 induced CCL18 secretion (fold change relative to vehicle control) ([1]; Donor 3): significantly increased
- IL-6 Measurements Mean ([2]; Donor 1, Conc. 153 μM (baseline)): 0
- IL-6 Measurements Mean ([2]; Donor 1, Conc. 3054 μM): 244.9743
- IL-6 Measurements Mean ([2]; Donor 1, Conc. 7635 μM): −69.9873
- IL-6 Measurements Mean ([2]; Donor 1, Conc. 15270 μM): 84.46
- IL-6 Measurements Mean ([2]; Donor 2, Conc. 153 μM (baseline)): 7.11E−15
- IL-6 Measurements Mean ([2]; Donor 2, Conc. 3054 μM): 29.61
- IL-6 Measurements Mean ([2]; Donor 2, Conc. 7635 μM): 30.46
- IL-6 Measurements Mean ([2]; Donor 2, Conc. 15270 μM): 47.6
- LPS-induced IL-6 secretion ([2]; macrophages, Donor 2, 0.15 ng/mL LPS): increased
